Test results reported in patent publication US10624884B2, “H4 agonist molecule for the treatment of idiopathic pulmonary fibrosis” (H4 ORPHAN PHARMA, priority 2016, dated 2020).

Legend:
CFU rich in H4 receptor = experiment: Proliferation of CFU rich in H4 receptor (FIG. 5); format: cell-based; conditions: for Activity on CFU proliferation when an anti H4 is used: with an anti H4
[1] = test system: idiopathic pulmonary fibrosis; conditions: 1,800 mg/d for one year, in addition to corticoids and azathioprine, cited from earlier work
TGFβ = experiment: Bleomycin mouse model: measurement of cytokines (TGFβ) in lung homogenate, Luminex assay; format: in vivo, mice (C57/B16J, BL6); conditions: BLM mice; P=0.001 for both substances; FIG. 1A
Protocol: (§1) The bleomycin mouse protocol (BLM) was conducted with all of the mice of each group of 10 mice (species: C57/B16J, referred to further on as BL6); these are female mice 8 weeks old.
(§2) All of the mice of all of the groups (except group 1) receive bleomycin (BLM) intranasally (3 mg/kg via intranasal instillation) for 5 consecutive days and will be monitored daily and killed at D+29 after BLM instillation in order to study the chronic pulmonary inflammation and the fibrosis. The bleomycin being administered five times at the age of 8 weeks (see diagram 3A).
(§3) The treatment with tritoqualine is done in 2 doses, 20 and 40 mg/kg/day throughout the entire life of the mice. The treatment with tritoqualine starts fourteen days after the first inhalation of the treatment with bleomycin. The treatment is done orally. The groups studied were as follows:
The interferon gamma and TGFβ levels were measured in a lung homogenate; the concentrations of these different cytokines were determined by a Luminex assay using a MAGPIX (Biorad, France) according to the manufacturer's instructions.

[2] = test system: bleomycin mouse model of idiopathic pulmonary fibrosis (BL6 mice); experiment: Bleomycin mouse model: lung histology, semi-quantitative fibrosis score (Ashcroft score); format: in vivo, mice (C57/B16J
Protocol: as §1
The analyse of the Fibrosis was conducted with all the animals of each group, respectively. The extent of the fibrosis was analysed biochemically, histologically and cytologically using various quantitative and semi quantitative methods.
All of the mice BL6 are treated according to the protocol hereinbelow. • 5 groups of mice were evaluated.
The treatment with bleomycin (BLM) is done according to the following protocol:
as §2, §3
After bronchoalveolar lavage (BAL) and perfusion of the lung, the large lobe was fixed in 4% buffered formaldehyde for standard microscopic analysis (Leica microscope). […] sections were coloured with Masson's trichrome (TM) by using standard techniques, which allow for the evaluation of the fibrosis (TM) as the fibres of collagen are coloured blue and the observation of the extent of the inflammation.
The fibrosis was evaluated by a semi-quantitative score (0-5) (Ashcroft score) with the increase in severity by two independent observers.
The fibrosis with the deposit of collagen located at the alveolar walls and in the peribronchial area and the infiltration of inflammatory cells were evaluated using a semi-quantitative score of 0-5 with an increasing severity by two independent observers.

collagen = experiment: Bleomycin mouse model: titration of collagen (hydroxyproline) in lung homogenate; format: in vivo, mice (C57/B16J, BL6); conditions: for Collagen (hydroxyproline), mean±standard deviation: BLM mice, n=10, bleomycin group 340.0±4.888
Protocol: as §1, §2, §3
The collagen content is done after homogenisation of the lung. After bronchoalveolar lavage (BAL), the entire lung was perfused with a saline solution through the right ventricle of the heart in order to empty the vascular content.
The lungs were frozen at −70° C. until they were used. The lung was then homogenised in PBS and centrifuged.
The supernatant was discarded and the lower portion was put back into suspension in 1 ml of PBS containing 0.5% hexadecyltrimethylammonium bromide (HTAB) and 5 mM ethylene-diamine-tetra-acetic acid (EDTA).
After centrifugation, the collagen content was determined by the Sircol assay (France Biochem Division, France), as described by the manufacturer.
The titration of the collagen (method by the dosage of hydroxyproline) is expressed in μg/mg of proteins.

histamine H4 receptor = histamine H4 receptor (Homo sapiens, UniProt Q9H3N8); conditions: shown in US 2010144718A; cited from earlier work
histamine H4 receptor, sequence (Q9H3N8 whole entry, species assumed): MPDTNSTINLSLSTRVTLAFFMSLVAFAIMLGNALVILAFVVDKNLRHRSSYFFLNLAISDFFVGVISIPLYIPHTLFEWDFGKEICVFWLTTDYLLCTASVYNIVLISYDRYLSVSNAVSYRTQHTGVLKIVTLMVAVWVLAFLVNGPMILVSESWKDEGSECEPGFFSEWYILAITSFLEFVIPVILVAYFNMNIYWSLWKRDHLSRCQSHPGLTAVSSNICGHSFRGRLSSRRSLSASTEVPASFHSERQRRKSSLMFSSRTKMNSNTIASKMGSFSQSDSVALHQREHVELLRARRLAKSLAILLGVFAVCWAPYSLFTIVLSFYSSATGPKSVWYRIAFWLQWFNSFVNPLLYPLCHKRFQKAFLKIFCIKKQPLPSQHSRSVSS

histidine decarboxylase = molecular target: T1, histidine decarboxylase (Homo sapiens, UniProt P19113); conditions: background statement; cited from earlier work
T1 sequence (P19113 1-662): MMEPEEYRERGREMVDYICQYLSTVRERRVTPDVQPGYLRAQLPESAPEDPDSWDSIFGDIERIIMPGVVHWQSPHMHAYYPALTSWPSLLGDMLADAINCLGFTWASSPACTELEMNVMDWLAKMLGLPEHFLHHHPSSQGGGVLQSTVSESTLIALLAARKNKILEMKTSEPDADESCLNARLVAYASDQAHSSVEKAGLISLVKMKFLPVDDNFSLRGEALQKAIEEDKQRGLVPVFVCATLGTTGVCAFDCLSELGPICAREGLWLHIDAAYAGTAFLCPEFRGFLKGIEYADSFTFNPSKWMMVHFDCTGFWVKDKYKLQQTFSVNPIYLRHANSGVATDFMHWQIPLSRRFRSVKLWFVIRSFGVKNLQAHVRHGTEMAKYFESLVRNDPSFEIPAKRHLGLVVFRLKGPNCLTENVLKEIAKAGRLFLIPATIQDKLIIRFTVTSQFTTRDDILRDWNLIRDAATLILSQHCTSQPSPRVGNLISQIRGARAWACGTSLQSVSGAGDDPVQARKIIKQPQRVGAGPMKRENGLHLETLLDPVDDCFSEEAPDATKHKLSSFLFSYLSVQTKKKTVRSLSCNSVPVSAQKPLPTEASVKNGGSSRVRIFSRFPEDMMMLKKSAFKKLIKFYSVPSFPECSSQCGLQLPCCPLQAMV

[3] = commercial white powder; degrades in Cotarnine and phthalic acid; cited from earlier work
[4] = pirfenidone 100 mg/kg po versus bleomycin

Structure (SMILES): NC(=NCc1ccc(Cl)cc1)SCCCc1cnc[nH]1 [Clobenpropit]
- Activity on CFU proliferation when an anti H4 is used (CFU rich in H4 receptor): substantially diminished

Structure (SMILES): CC(=O)N[C@@H](CS)C(=O)O [N-acetylcysteine]
- Average decrease in the decline of the forced vital capacity ([1]; (0.03-0.32)): 0.18 L
- Decrease in the decline of the diffusion of CO [1]: 24%
- Mortality between the two groups [1]: no difference in mortality
- Relative difference in the decline of the forced vital capacity [1]: 9%

Structure (SMILES): Cc1ccc(=O)n(-c2ccccc2)c1 [Pirfenidone, pirfenidone]
- Effect on TGFβ in lung homogenate (TGFβ): strongly inhibits
- Histological semi-quantitative score (0-5) (Ashcroft score), mean±standard deviation ([2]; BLM mice, pirfenidone 100 mg/kg po, n=10, bleomycin group 4.2±0.14, P 0.0449): 3.8±0.12
- Histological score, difference between the two means (treated versus bleomycin) [2, 4]: −0.40±0.18
- Collagen (hydroxyproline), mean±standard deviation (collagen; pirfenidone 100 mg/kg po, P 0.0450): 316.5±9.748 μg/mg of proteins
- Collagen (hydroxyproline), difference between the two means (treated versus bleomycin) (collagen; [4]): −23.50±10.90 μg/mg of proteins

Structure (SMILES): CCOc1c(N)c2c(c(OCC)c1OCC)C(C1c3c(cc4c(c3OC)OCO4)CCN1C)OC2=O (centres unmarked) [Tritoqualine, 7-Amino-4,5,6-triethoxy-3-(5,6,7,8-tetrahydo-4-methoxy-6-methyl-1,3-dioxolo[4,5-g]isoquinolin-5-yl) phthalide]
- Effect on TGFβ in lung homogenate (TGFβ): strongly inhibits
- Efficacy on histology versus bleomycin (conclusion) ([2]; tritoqualine 20 mg/kg po, D14 to D28, P<0.0002): very high efficacy
- Effect on the histological score ([2]; tritoqualine at the dose of 20 or 40 mg/kg, po): substantially decreases the histological score
- Action on the histamine H4 receptor (histamine H4 receptor): very substantial action
- Effect on the proliferation of CFU rich in H4 receptor (CFU rich in H4 receptor): able to inhibit the proliferation of CFU
- Activity on CFU proliferation when an anti H4 is used (CFU rich in H4 receptor): substantially diminished
- Inhibiting activity on histidine decarboxylase (histidine decarboxylase): very low
- Collagen (hydroxyproline), mean±standard deviation (collagen; tritoqualine 20 mg/kg po, P<0.0001): 280.0±7.528 μg/mg of proteins
- Collagen (hydroxyproline), difference between the two means (treated versus bleomycin) (collagen; tritoqualine 20 mg/kg po versus bleomycin): −60.00±8.975 μg/mg of proteins
- Stability to light [3]: highly sensitive to light
